Laboratory results taken from ChEMBL document CHEMBL3745651, “Flat SAR of P3-methylsulphonamide based small molecule legumain inhibitors” (Bioorg Med Chem Lett, 2016).
Converted amounts (≈) assume the structure as drawn.

What was measured:
[1] = molecular target: T1, Legumain (Homo sapiens, UniProt Q99538); test: Inhibition of recombinant human legumain using Z-Ala-Ala-Asn-MCA as substrate preincubated with protein followed by substrate addition measured every 2 mins for 60 mins by microplate reader analysis
T1 sequence (Q99538 whole entry): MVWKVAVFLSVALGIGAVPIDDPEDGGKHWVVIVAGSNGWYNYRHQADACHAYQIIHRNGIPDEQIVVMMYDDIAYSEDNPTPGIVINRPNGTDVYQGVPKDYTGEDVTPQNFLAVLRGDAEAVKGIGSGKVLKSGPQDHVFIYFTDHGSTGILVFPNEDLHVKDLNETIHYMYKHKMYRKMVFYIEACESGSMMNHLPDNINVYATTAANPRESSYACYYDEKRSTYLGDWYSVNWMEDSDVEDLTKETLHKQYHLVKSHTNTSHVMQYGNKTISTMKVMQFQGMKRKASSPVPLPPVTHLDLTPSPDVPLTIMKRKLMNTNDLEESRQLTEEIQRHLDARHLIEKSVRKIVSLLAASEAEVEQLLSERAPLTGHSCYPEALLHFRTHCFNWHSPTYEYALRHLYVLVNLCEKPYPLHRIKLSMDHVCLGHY

[2] = Intrinsic clearance in rat liver microsomes at 1 uM incubated for 50 mins by LC-MS/MS method in presence of NADPH; assay type: ADME; conditions: read-out: CLH
[3] = Intrinsic clearance in mouse liver microsomes at 1 uM incubated for 50 mins by LC-MS/MS method in presence of NADPH; assay type: ADME; conditions: read-out: CLH
[4] = Kinetic solubility of compound in pH 7.4 PBS buffer after 90 mins by plate reader analysis; assay type: physicochemical; conditions: read-out: Kinetic_solubility
[5] = Intrinsic clearance in rat hepatocytes assessed per 10^6 cells at 1 uM incubated at 37 degC for 50 mins by LC-MS/MS method […]; assay type: ADME, cell-based, Hepatocyte; conditions: read-out: CLH

SMILES | IC50 [1] [nM] | also measured
CC(C)Oc1cccc(-c2ccc(CN([C@H](C)C(=O)N[C@H](C#N)CC(N)=O)S(C)(=O)=O)cc2)c1 | 5050 | –
C[C@H](C(=O)N[C@H](C#N)CC(N)=O)N(Cc1ccc(-c2cc(F)cc(F)c2)cc1)S(C)(=O)=O | 9250 | –
CCOc1cccc(-c2ccc(CN([C@H](C)C(=O)N[C@H](C#N)CC(N)=O)S(C)(=O)=O)cc2)c1 | > 10000 | –
CCC[C@@H](C(=O)N[C@H](C#N)CC(N)=O)N(Cc1ccc(-c2cccc(F)c2)cc1)S(C)(=O)=O | 4380 | –
C[C@@H](C(=O)N[C@H](C#N)CC(N)=O)N(Cc1ccc(-c2cc(F)cc(F)c2)cc1)S(C)(=O)=O | 1360 | –
C[C@H](C(=O)N[C@H](C#N)CC(N)=O)N(Cc1ccc(-c2ccccc2F)cc1)S(C)(=O)=O | > 10000 | –
CCCS(=O)(=O)N(Cc1ccc(-c2cccc(F)c2F)cc1)[C@@H](C)C(=O)N[C@H](C#N)CC(N)=O | 6740 | –
CCC[C@@H](C(=O)N[C@H](C#N)CC(N)=O)N(Cc1ccc(-c2cccc(F)c2F)cc1)S(C)(=O)=O | 7750 | –
C[C@H](C(=O)N[C@H](C#N)CC(N)=O)N(Cc1ccc(-c2ccc(F)c(F)c2)cc1)S(C)(=O)=O | 6300 | –
CC[C@@H](C(=O)N[C@H](C#N)CC(N)=O)N(Cc1ccc(-c2cccc(F)c2F)cc1)S(C)(=O)=O | 5850 | –
C[C@H](C(=O)N[C@H](C#N)CC(N)=O)N(Cc1ccc(-c2cccc(F)c2)cc1)S(C)(=O)=O | 2260 | –
C[C@H](C(=O)N[C@H](C#N)CC(N)=O)N(Cc1ccc(-c2cccc(F)c2F)cc1)S(C)(=O)=O | 1460 | –
CC(C)CS(=O)(=O)N(Cc1ccc(-c2cccc(F)c2)cc1)[C@@H](C)C(=O)N[C@H](C#N)CC(N)=O | 2270 | –
COc1cccc(-c2ccc(CN([C@H](C)C(=O)N[C@H](C#N)CC(N)=O)S(C)(=O)=O)cc2)c1 | 5850 | –

Stronger by IC50 [1], values ahead:

IC50 [1] [nM] | SMILES | also measured
1090 | CCS(=O)(=O)N(Cc1ccc(-c2cccc(F)c2F)cc1)[C@@H](C)C(=O)N[C@H](C#N)CC(N)=O | –
882 | CC(C)Oc1cccc(-c2ccc(CN([C@@H](C)C(=O)N[C@H](C#N)CC(N)=O)S(C)(=O)=O)cc2)c1 | –
586 | CCOc1cccc(-c2ccc(CN([C@@H](C)C(=O)N[C@H](C#N)CC(N)=O)S(C)(=O)=O)cc2)c1 | –
425 | CC(C(=O)N[C@H](C#N)CC(N)=O)N(Cc1ccc(-c2cccc(Cl)c2)cc1)S(C)(=O)=O (mixture of isomers) | –
378 | COc1cccc(-c2ccc(CN([C@@H](C)C(=O)N[C@H](C#N)CC(N)=O)S(C)(=O)=O)cc2)c1 | microsomal CLint at 1 µM [2]: 38 µL/min/mg; microsomal CLint at 1 µM [3]: 24 µL/min/mg; solubility kinetic at 1.5 h [4]: 193 µM (≈ 88.5 µg/mL); hepatocyte CLint at 1 µM [5]: 69 µL/min/1e6 cells
356 | C[C@@H](C(=O)N[C@H](C#N)CC(N)=O)N(Cc1ccc(-c2ccccc2F)cc1)S(C)(=O)=O | –
323 | C[C@@H](C(=O)N[C@H](C#N)CC(N)=O)N(Cc1ccc(-c2cccc(F)c2F)cc1)S(C)(=O)=O | microsomal CLint at 1 µM [2]: 17 µL/min/mg; microsomal CLint at 1 µM [3]: 3 µL/min/mg; solubility kinetic at 1.5 h [4]: 181 µM (≈ 84.1 µg/mL); hepatocyte CLint at 1 µM [5]: 38 µL/min/1e6 cells
252 | C[C@@H](C(=O)N[C@H](C#N)CC(N)=O)N(Cc1ccc(-c2ccc(F)c(F)c2)cc1)S(C)(=O)=O | –
128 | C[C@@H](C(=O)N[C@H](C#N)CC(N)=O)N(Cc1ccc(-c2cccc(F)c2)cc1)S(C)(=O)=O | microsomal CLint at 1 µM [2]: 19 µL/min/mg; microsomal CLint at 1 µM [3]: 4 µL/min/mg; solubility kinetic at 1.5 h [4]: 185 µM (≈ 82.6 µg/mL); hepatocyte CLint at 1 µM [5]: 45 µL/min/1e6 cells
